Data on 16 compounds can be found in PubChem BioAssay (NCI).

Some test systems named below: A549 NSCLC; HOP-92 NSCLC; MALME-3M melanoma; MDA-N; MOLT-4 leukemia; NCI-H226 lung; RPMI-8226 leukemia; U251 CNS.
Assay in all cases: NCI anticancer screen, dose series, 48 h

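The compound was tested at five concentrations on cells cultured in 96-well plates, with a 48-hour exposure period. The concentration for full growth arrest is given as TGI.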

Regarding `COC(=O)/C=C/C1(O)C=CC(=O)C=C1`, the TGI is above 47.8 µM with A549 NSCLC; above 32.1 µM with HOP-92 NSCLC; 8.26 µM with MALME-3M melanoma; 4.5 µM with MDA-N; above 24.6 µM in the experiment on MOLT-4 leukemia; 47.1 µM in the experiment with NCI-H226 lung. Also, the TGI in the experiment on RPMI-8226 leukemia is above 100 µM; with U251 CNS it was above 26.5 µM.
In the case of `COc1cc(-c2[o+]c3cc(O)cc(O)c3cc2O)cc(O)c1O`, the TGI with A549 NSCLC, in the experiment with HOP-92 NSCLC, in the experiment with MALME-3M melanoma, with MDA-N, in the experiment on MOLT-4 leukemia and with NCI-H226 lung was above 100 µM each time. Further, the TGI in the experiment on RPMI-8226 leukemia and with U251 CNS was above 100 µM throughout.
As to `O=C(C/C(=N/O)c1cc(-c2ccccc2)no1)c1ccccc1`, the TGI is above 100 µM in the experiment with A549 NSCLC; 58 µM in the experiment on HOP-92 NSCLC; above 100 µM in the experiment on MALME-3M melanoma; above 100 µM in the experiment with MDA-N; above 100 µM with MOLT-4 leukemia; 56.7 µM with NCI-H226 lung. Further, the figures for the TGI in the experiment on RPMI-8226 leukemia and in the experiment with U251 CNS were above 100 µM and 60.5 µM, respectively.
In the case of `COc1ccc2cc(-c3nc(N)nc(N4N=C(C)CC4(C)C)n3)c(=N)oc2c1`, the TGI was above 100 µM in the experiment on A549 NSCLC; 60.5 µM with HOP-92 NSCLC; 32.7 µM in the experiment with MALME-3M melanoma; 33.5 µM with MDA-N; 33.7 µM in the experiment with MOLT-4 leukemia; 40.6 µM in the experiment on NCI-H226 lung. Moreover, the TGI in the experiment on RPMI-8226 leukemia came out at 36.6 µM; with U251 CNS it was 41.9 µM.
Turning to `COc1ccc(/C=C2\CCC/C(=C\c3ccc(O)c(CN4CCCCC4)c3)C2=O)cc1`, the TGI with A549 NSCLC amounted to 52.8 µM; in the experiment on HOP-92 NSCLC, 51.6 µM; in the experiment on MALME-3M melanoma it was 49 µM; in the experiment on MDA-N, 37.2 µM; in the experiment with MOLT-4 leukemia, 40.7 µM; in the experiment with NCI-H226 lung it was 45.8 µM. The TGI is above 43.8 µM in the experiment on RPMI-8226 leukemia and 33.9 µM with U251 CNS.
For the compound `CCOC(=O)C(=O)/C(=C/N1C(=O)CC(=O)NC1=S)C(=O)OCC`, the TGI was above 100 µM in the experiment on A549 NSCLC; above 92.9 µM with HOP-92 NSCLC; above 100 µM in the experiment with MALME-3M melanoma; above 100 µM in the experiment with MDA-N; above 100 µM with MOLT-4 leukemia; above 100 µM in the experiment with NCI-H226 lung. The TGI with RPMI-8226 leukemia and in the experiment with U251 CNS was above 100 µM throughout.
In the case of `COc1ccc2[nH]c3c(C)c4ccnc(NCCCN(C)CCCNc5ccc6ncn7c8ccccc8c(=O)c5c67)c4c(C)c3c2c1`, the TGI in the experiment with A549 NSCLC is 1.48 µM; with HOP-92 NSCLC it was 19.2 µM; with MALME-3M melanoma it was 5.92 µM; in the experiment with MDA-N it was 4.29 µM; in the experiment with MOLT-4 leukemia, 3.13 µM; with NCI-H226 lung, 2.54 µM. Besides, the TGI came out at 4.56 µM with RPMI-8226 leukemia and 1.12 µM in the experiment on U251 CNS.
As to `C=CCOC(=O)C1=C(CCC[C@@H](C)O[Si](C)(C)C(C)(C)C)N=C(N)N2[C@H](CCO)CC[C@@H]12`, the TGI in the experiment on A549 NSCLC was 22 µM; with HOP-92 NSCLC, 27.2 µM; with MALME-3M melanoma it was 34.9 µM; in the experiment with MDA-N, 32.9 µM; in the experiment with MOLT-4 leukemia, 24.9 µM; with NCI-H226 lung, 33.9 µM. For the same compound, the TGI came to 27.6 µM in the experiment with RPMI-8226 leukemia and 24.7 µM in the experiment with U251 CNS.
`COc1cccc(N(CN2C(=O)CCC2C(=O)O)C(C)=O)c1` (configuration not stated): the TGI in the experiment with A549 NSCLC, in the experiment on HOP-92 NSCLC, in the experiment on MALME-3M melanoma, in the experiment with MDA-N, in the experiment with MOLT-4 leukemia and in the experiment with NCI-H226 lung was above 100 µM throughout. The TGI with RPMI-8226 leukemia and with U251 CNS was above 100 µM in each case.
In the case of `COC(=O)C1=C(C)C=C(N2CCOCC2)C(C(=O)OC)C1c1ccccc1` (configuration not stated), the TGI with A549 NSCLC, in the experiment on HOP-92 NSCLC, in the experiment on MALME-3M melanoma, in the experiment with MDA-N, with MOLT-4 leukemia and with NCI-H226 lung was above 10 µM throughout. Also, the TGI in the experiment on RPMI-8226 leukemia and in the experiment on U251 CNS was above 10 µM throughout.
For `COC1OC(COC(=O)c2cc(O)c(O)c(O)c2)C(OC(=O)c2cc(O)c(O)c(O)c2)C(OC(=O)c2cc(O)c(O)c(O)c2)C1OC(=O)c1cc(O)c(O)c(O)c1` (configuration not stated), the TGI in the experiment on A549 NSCLC is above 100 µM; in the experiment with HOP-92 NSCLC, above 100 µM; in the experiment on MALME-3M melanoma, above 100 µM; in the experiment with MDA-N, 87.6 µM; in the experiment with MOLT-4 leukemia it was 70.6 µM; in the experiment with NCI-H226 lung, 66.8 µM. For the same compound, the values for the TGI with RPMI-8226 leukemia and with U251 CNS were 97.3 µM and above 100 µM, respectively.
For `C[C@@H](NC(=O)c1ccc(CNC(=O)/C=C/c2cccc(Oc3ccccc3)c2)cc1)c1ccccc1`, the TGI in the experiment on A549 NSCLC was above 57.8 µM; in the experiment on HOP-92 NSCLC, above 100 µM; in the experiment on MALME-3M melanoma, above 100 µM; in the experiment on MDA-N, above 100 µM; with MOLT-4 leukemia it was above 100 µM; in the experiment on NCI-H226 lung it was above 73.5 µM. In addition, the TGI in the experiment on RPMI-8226 leukemia and in the experiment on U251 CNS was above 100 µM in each case.
For the compound `O=C1C=CC(=O)c2c1ccc1c3ccccc3n(Cc3cccc([N+](=O)[O-])c3)c21`, the TGI in the experiment on A549 NSCLC is above 100 µM; in the experiment on HOP-92 NSCLC it was 43.7 µM; with MALME-3M melanoma, 40 µM; with MDA-N, 26.3 µM; with MOLT-4 leukemia, 37.7 µM; in the experiment with NCI-H226 lung it was above 100 µM. Besides, the TGI with RPMI-8226 leukemia was above 55.8 µM; with U251 CNS it was above 100 µM.
In the case of `C=C(CN1CC2C[C@](C(=O)OC)(c3cc4ccccc4[nH]3)C1C(OC)C2OC)S(=O)(=O)c1ccccc1` (some centres not stated), the TGI with A549 NSCLC worked out at 12.6 µM; with HOP-92 NSCLC, 8.33 µM; in the experiment on MALME-3M melanoma, 7.38 µM; with MDA-N, 8.94 µM; in the experiment on MOLT-4 leukemia it was 2.83 µM; in the experiment with NCI-H226 lung it was 18.8 µM. Besides, the figures for the TGI in the experiment on RPMI-8226 leukemia and with U251 CNS were 6.06 µM and 8.52 µM, respectively.
`COc1cc2c(cc1OC)C(=O)/C(=C/c1cc(OC)c(OC)c(OC)c1)C2`: the TGI with HOP-92 NSCLC, with MALME-3M melanoma, with MDA-N, with MOLT-4 leukemia, in the experiment with NCI-H226 lung and in the experiment on RPMI-8226 leukemia was above 100 µM in each case. Besides, the TGI in the experiment on U251 CNS is above 100 µM.
In the case of `CC(C)Cc1cc2c(cc1O)CCC1C2CC[C@@]2(C)C1CC[C@@H]2O` (some centres not stated), the TGI with A549 NSCLC worked out at 21.4 µM; in the experiment on HOP-92 NSCLC it was 26.6 µM; in the experiment on MALME-3M melanoma it was 37 µM; with MDA-N, 19.7 µM; with MOLT-4 leukemia, 17.2 µM; in the experiment with NCI-H226 lung it was 14.2 µM. Further, the TGI in the experiment with RPMI-8226 leukemia turned out to be 20.4 µM; in the experiment with U251 CNS, 27 µM.
